In patent US20120016009A1, “Optimized Methods For Delivery Of DSRNA Targeting The PCSK9 Gene” (priority 2008, published 2012):
pIC50: −log10 of the molar value. In the oligonucleotide strings, read from the 5' end, every base follows the letter of its sugar. An asterisk marks phosphorothioate; unmarked linkages are phosphodiester. Other units and linkages are bracketed, terminal groups are in braces. A string of capitals states the bases alone. e = 2'-O-(2-methoxyethyl) (MOE); d = 2'-deoxy (DNA); m = 2'-O-methyl; r = 2'-OH (RNA); {P} = phosphate; f = 2'-fluoro

Columns and labels:
PCSK9 mRNA [1] = assay: In vitro screening of modified dsRNAs targeted to PCSK9 (Table 2b; cell type not given); assay type: cell-based; conditions: 30 nM siRNA
Procedure: For transfection with siRNA, HuH7, HepG2, or HeLa cells were seeded at a density of 2.0×10^4 cells/well in 96-well plates and transfected directly. Transfection of siRNA (30 nM for single dose screen) was carried out with lipofectamine 2000 (Invitrogen GmbH, Karlsruhe, Germany, cat. No. 11668-019) as described by the manufacturer.
24 hours after transfection HuH7 and HepG2 cells were lysed and PCSK9 mRNA levels were quantified with the Quantigene Explore Kit (Genosprectra, Dumbarton Circle Fremont, USA, cat. No. QG-000-02) according to the protocol. PCSK9 mRNA levels were normalized to GAP-DH mRNA. For each siRNA eight individual datapoints were collected. siRNA duplexes unrelated to PCSK9 gene were used as control. The activity of a given PCSK9 specific siRNA duplex was expressed as percent PCSK9 mRNA concentration in treated cells relative to PCSK9 mRNA concentration in cells treated with the control siRNA duplex.
Tables 1b and 2b (and FIG. 6A) summarize the results and provide examples of in vitro screens in different cell lines at different doses. Silencing of PCSK9 transcript was expressed as percentage of remaining transcript at a given dose.

PCSK9 mRNA [2] = assay: PCSK9 siRNA screening in HepG2 cells (lipofectamine 2000 transfection, PCSK9 mRNA by Quantigene, normalized to GAP-DH); assay type: cell-based, human; conditions: for Mean percent remaining mRNA transcript at siRNA concentration/in cell type 3 nM/HepG2: 3 nM siRNA; for Mean percent remaining mRNA transcript at siRNA concentration/in cell type 30 nM/HepG2: 30 nM siRNA; for Mean percent remaining mRNA transcript at siRNA concentration/in cell type 100 nM/HepG2: 100 nM siRNA
Summary of the method: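 HepG2 cells, grown in MEM with 10% fetal calf serum, antibiotics, non-essential amino acids and sodium pyruvate at 37° C. and 5% CO2, were plated at 2.0×10^4 cells/well in 96-well plates and transfected directly with siRNA using lipofectamine 2000. After 24 hours, cells were lysed and PCSK9 mRNA was measured by Quantigene and normalized to GAP-DH mRNA.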

Row | Substance | Mean percent remaining mRNA transcript at siRNA concentration/in cell type 30 nM/HepG2 (PCSK9 mRNA [2]) | further results
1 | AD-12381: modified dsRNA, SEQ ID NO:1457/1458 (chain 1 rGfCfCfUrGrGrArGfUfUfUrAfUfUfCrGrGrArAdT*dT; chain 2 {P}-mUfUmCfCmGfAmAfUmAfAmAfCmUfCmCfAmGfGmCdT*dT) |  | Remaining mRNA in % of controls at siRNA conc. of 30 nM (PCSK9 mRNA [1]): 10%
2 | AD-12365: modified dsRNA, SEQ ID NO:1427/1428 (chain 1 GCCUGGAGUUUAUUCGGAATT; chain 2 rUrUrCrCrGrArAmUrArArArCrUrCmCrArGrGrCdT*dT; chain 1: sugars from the 5' end rerererererererererdd, linkages o19 s1 (s phosphorothioate, o phosphodiester), methylation of C and T or U not given here) |  | Remaining mRNA in % of controls at siRNA conc. of 30 nM (PCSK9 mRNA [1]): 18%
3 | AD-12402: modified dsRNA, SEQ ID NO:1499/1500 (chain 1 rGmCmCmUrGrGrArGmUmUmUrAmUmUmCrGrGrArA; chain 2 {P}-fUfUfCfCrGrArAfUrArArAfCfUfCfCrArGrGfC*fC*fU) |  | Remaining mRNA in % of controls at siRNA conc. of 30 nM (PCSK9 mRNA [1]): 14%
4 | AD-9671: PCSK9 siRNA (sense rArGmUmCrArArGrGrArGmCrAmUrGrGrArAmUmCdT*dT; antisense rGrArUrUrCmCrArUrGrCrUrCrCrUrUrGrArCrUdT*dT) | 15% | pIC50 (PCSK9 mRNA [2]): 8.60; Mean percent remaining mRNA transcript at siRNA concentration/in cell type 3 nM/HepG2 (PCSK9 mRNA [2]): 33%
5 | AD-9583: PCSK9 siRNA (sense rCrCrCrArUrGrUrCrGrArCrUrArCrArUrCrGrAdT*dT; antisense rUrCrGrArUrGrUrArGrUrCrGrArCrArUrGrGrGdT*dT) | 42% | 
6 | AD-9641: PCSK9 siRNA (sense rGrGmUrAmCmCrGrGrGmCrGrGrAmUrGrArAmUrAdT*dT; antisense mUrArUrUmCrArUrCrCrGrCrCrCrGrGmUrArCrCdT*dT) | 92% | 
7 | AD-9548: PCSK9 siRNA (sense rGrCrArGrUrCrArGrArGrCrGrCrArCrUrGrCrCdT*dT; antisense rGrGrCrArGrUrGrCrGrCrUrCrUrGrArCrUrGrCdT*dT) | 54% | Mean percent remaining mRNA transcript at siRNA concentration/in cell type 3 nM/HepG2 (PCSK9 mRNA [2]): 60%
8 | AD-9532: PCSK9 siRNA (sense rCrCrGrGrGrCrCrCrArCrArArCrGrCrUrUrUrUdT*dT; antisense rArArArArGrCrGrUrUrGrUrGrGrGrCrCrCrGrGdT*dT) | 100% | 
9 | AD-9674: PCSK9 siRNA (sense rGmCrArGmUmCrArGrArGmCrGmCrAmCmUrGmCmCdT*dT; antisense rGrGmCrArGrUrGrCrGrCrUrCrUrGrArCrUrGrCdT*dT) | 36% | Mean percent remaining mRNA transcript at siRNA concentration/in cell type 3 nM/HepG2 (PCSK9 mRNA [2]): 57%
10 | AD-9579: PCSK9 siRNA (sense rArUrCrGrArGrGrArGrGrArCrUrCrCrUrCrUrGdT*dT; antisense rCrArGrArGrGrArGrUrCrCrUrCrCrUrCrGrArUdT*dT) | 113% | 
11 | AD-9664: PCSK9 siRNA (sense mCmCrGrGrGmCrGrGrAmUrGrArAmUrAmCmCrArGdT*dT; antisense rCrUrGrGmUrArUrUmCrArUrCrCrGrCrCrCrGrGdT*dT) | 53% | 
12 | AD-9753: PCSK9 siRNA (sense rArGrArGrAmCmUrGrAmUmCmCrAmCmUmUmCmUmCdT*dT; antisense rGrArGrArArGrUrGrGrArUmCrArGrUrCrUrCrUdT*dT) | 127% | 
13 | AD-9660: PCSK9 siRNA (sense rGrGrAmCrGrAmUrGmCmCmUrGmCmCmUmCmUrAmCdT*dT; antisense rGmUrArGrArGrGmCrArGrGmCrArUrCrGrUrCrCdT*dT) | 89% | Mean percent remaining mRNA transcript at siRNA concentration/in cell type 3 nM/HepG2 (PCSK9 mRNA [2]): 79%
14 | AD-9688: PCSK9 siRNA (sense mUmCmUmCmCmUrArGrAmCrAmCmCrArGmCrAmUrAdT*dT; antisense mUrArUrGrCrUrGrGrUrGrUrCmUrArGrGrArGrAdT*dT) | 26% | pIC50 (PCSK9 mRNA [2]): 8.38; Mean percent remaining mRNA transcript at siRNA concentration/in cell type 3 nM/HepG2 (PCSK9 mRNA [2]): 34%
15 | AD-9596: PCSK9 siRNA (sense rGrArArGrArUrGrArGrUrGrGrCrGrArCrCrUrGdT*dT; antisense rCrArGrGrUrCrGrCrCrArCrUrCrArUrCrUrUrCdT*dT) | 37% | 
16 | AD-9667: PCSK9 siRNA (sense rGrGmUrGrArGrGrGmUrGmUmCmUrAmCrGmCmCrAdT*dT; antisense rUrGrGrCrGmUrArGrAmCrArCrCrCrUmCrArCrCdT*dT) | 73% | 
17 | AD-9575: PCSK9 siRNA (sense rCrCrGrCrUrGrCrCrGrGrCrArArCrUrUrCrCrGdT*dT; antisense rCrGrGrArArGrUrUrGrCrCrGrGrCrArGrCrGrGdT*dT) | 120% | 
18 | AD-9617: PCSK9 siRNA (sense rArUrGrCrUrGrUrCrUrGrCrCrGrArGrCrCrGrGdT*dT; antisense rCrCrGrGrCrUrCrGrGrCrArGrArCrArGrCrArUdT*dT) | 111% | 
19 | AD-9655: PCSK9 siRNA (sense rGrGrGrAmUrAmCmCmUmCrAmCmCrArArGrAmUmCdT*dT; antisense rGrArUrCrUrUrGrGrUrGrArGrGmUrArUrCrCrCdT*dT) | 140% | 
20 | AD-9584: PCSK9 siRNA (sense rCrCrCrUrGrGrCrGrGrGrUrGrGrGrUrArCrArGdT*dT; antisense rCrUrGrUrArCrCrCrArCrCrCrGrCrCrArGrGrGdT*dT) | 68% | Mean percent remaining mRNA transcript at siRNA concentration/in cell type 100 nM/HepG2 (PCSK9 mRNA [2]): 52%
21 | AD-9635: PCSK9 siRNA (sense rGrUrCrUrGrCrCrGrArGrCrCrGrGrArGrCrUrCdT*dT; antisense rGrArGrCrUrCrCrGrGrCrUrCrGrGrCrArGrArCdT*dT) | 90% | Mean percent remaining mRNA transcript at siRNA concentration/in cell type 100 nM/HepG2 (PCSK9 mRNA [2]): 73%
22 | AD-9646: PCSK9 siRNA (sense mCmUrGrGmUrGmCmUrArGmCmCmUmUrGmCrGmUmUdT*dT; antisense rArArCrGmCrArArGrGrCmUrArGmCrArCmCrArGdT*dT) | 97% | Mean percent remaining mRNA transcript at siRNA concentration/in cell type 3 nM/HepG2 (PCSK9 mRNA [2]): 108%
23 | AD-9733: PCSK9 siRNA (sense rGrGrArGmCmUrGrGmUrGmCmUrArGmCmCmUmUrGdT*dT; antisense mCrArArGrGrCmUrArGmCrArCmCrArGrCrUrCrCdT*dT) | 78% | Mean percent remaining mRNA transcript at siRNA concentration/in cell type 3 nM/HepG2 (PCSK9 mRNA [2]): 73%
24 | AD-9639: PCSK9 siRNA (sense rGrUrGrCrUrGrArGrGrCrCrArCrGrArGrGrUrCdT*dT; antisense rGrArCrCrUrCrGrUrGrGrCrCrUrCrArGrCrArCdT*dT) | 30% | Mean percent remaining mRNA transcript at siRNA concentration/in cell type 3 nM/HepG2 (PCSK9 mRNA [2]): 35%
25 | AD-9537: PCSK9 siRNA (sense rArCrGrGrUrArCrCrGrGrGrCrGrGrArUrGrArAdT*dT; antisense rUrUrCrArUrCrCrGrCrCrCrGrGrUrArCrCrGrUdT*dT) | 145% | 
26 | AD-9516: PCSK9 siRNA (sense rUrGrUrArUrCrUrCrCrUrArGrArCrArCrCrArGdT*dT; antisense rCrUrGrGrUrGrUrCrUrArGrGrArGrArUrArCrAdT*dT) | 94% | 
27 | AD-9732: PCSK9 siRNA (sense mUmCrGmUrGmCmUrGrGmUmCrAmCmCrGmCmUrGmCdT*dT; antisense rGmCrArGrCrGrGrUrGrArCmCrArGmCrArCrGrAdT*dT) | 105% | 
28 | AD-9759: PCSK9 siRNA (sense mUrGrGmUmCrAmCmCrGmCmUrGmCmCrGrGmCrArAdT*dT; antisense rUrUrGrCrCrGrGmCrArGrCrGrGrUrGrArCmCrAdT*dT) | 111% | 
29 | AD-9536: PCSK9 siRNA (sense rUrUrArUrUrCrGrGrArArArArGrCrCrArGrCrUdT*dT; antisense rArGrCrUrGrGrCrUrUrUrUrCrCrGrArArUrArAdT*dT) | 157% | 
30 | AD-9691: PCSK9 siRNA (sense mUrAmCmUmCmUrGmCmUmCmUrAmUrGmCmCrArGrGdT*dT; antisense rCrCrUrGrGmCrAmUrArGrArGmCrArGrArGmUrAdT*dT) | 49% | 
